Columns and labels:
[1] = system: U-251; assay: Inhibition of cell proliferation of human U251 cells assessed as cell viability at 100 uM after 72 hrs by sulforhodamine B assay; type: functional; conditions: U-251, 72 h, read-out: Activity
[2] = system: C6; assay: Inhibition of cell proliferation of rat C6 cells assessed as cell viability at 100 uM after 72 hrs by sulforhodamine B assay; type: functional; conditions: C6, 72 h, read-out: Activity

SMILES | viability at 100 µM [1] [%] | viability at 100 µM [2] [%]
CC(C)=CCC[C@@](C)(O)[C@H]1CC[C@]2(C)[C@@H]1[C@H](O)C[C@@H]1[C@@]3(C)CC[C@H](O[C@@H]4O[C@H](CO)[C@@H](O)[C@H](O)[C@H]4O[C@@H]4O[C@H](CO)[C@@H](O)[C@H](O)[C@H]4O)C(C)(C)[C@@H]3CC[C@]12C | 77.5 | 97.2
CC(C)=CCC[C@](C)(O[C@@H]1O[C@H](CO)[C@@H](O)[C@H](O)[C@H]1O)[C@H]1CC[C@]2(C)[C@@H]1[C@H](O)C[C@@H]1[C@@]3(C)CC[C@H](O[C@@H]4O[C@H](CO)[C@@H](O)[C@H](O)[C@H]4O[C@@H]4O[C@H](CO)[C@@H](O)[C@H](O)[C@H]4O)C(C)(C)[C@@H]3CC[C@]12C [GINSENOSIDE RD] | 78.4 | 102
COc1c(O)ccc(O)c1-c1cc(=O)c2c(O)cc(O)c(OC)c2o1 | 87.5 | 57.7
C/C=C(/C)C(=O)O[C@H]1[C@H](O)[C@]2(CO)[C@H](O)C[C@]3(C)C(=CC[C@@H]4[C@@]5(C)CC[C@H](O[C@@H]6O[C@H](C(=O)O)[C@@H](O[C@@H]7O[C@H](CO)[C@@H](O)[C@H](O)[C@H]7O)[C@H](O)[C@H]6O[C@@H]6O[C@H](CO)[C@@H](O)[C@H](O)[C@H]6O)[C@](C)(CO)[C@@H]5CC[C@]43C)[C@@H]2CC1(C)C | 94.6 | 90.7
CC(C)=CCC[C@](C)(O)[C@H]1CC[C@]2(C)[C@@H]1[C@H](O)C[C@@H]1[C@@]3(C)CC[C@H](O)C(C)(C)[C@@H]3[C@@H](O[C@@H]3O[C@H](CO)[C@@H](O)[C@H](O)[C@H]3O[C@@H]3OC[C@@H](O)[C@H](O)[C@H]3O)C[C@]12C | 108 | 59.3
C[C@@H]1O[C@@H](OC[C@H]2O[C@@H](Oc3c(-c4ccc(O)c(O)c4)oc4cc(O)cc(O)c4c3=O)[C@H](O)[C@@H](O)[C@@H]2O)[C@H](O)[C@H](O)[C@H]1O [RUTIN] | 61.5 | 62.1
O=C(O)[C@H]1O[C@@H](Oc2cc3oc(-c4ccccc4)cc(=O)c3c(O)c2O)[C@H](O)[C@@H](O)[C@@H]1O [BAICALIN] | 91.8 | 80.4
CC(C)=CCC[C@](C)(O[C@@H]1O[C@H](CO[C@@H]2O[C@H](CO)[C@@H](O)[C@H](O)[C@H]2O)[C@@H](O)[C@H](O)[C@H]1O)[C@H]1CC[C@]2(C)[C@@H]1[C@H](O)C[C@@H]1[C@@]3(C)CC[C@H](O[C@@H]4O[C@H](CO)[C@@H](O)[C@H](O)[C@H]4O[C@@H]4O[C@H](CO)[C@@H](O)[C@H](O)[C@H]4O)C(C)(C)[C@@H]3CC[C@]12C [GINSENOSIDE RB1] | 76.1 | 79
CC1(C)CC[C@]2(C(=O)O)CC[C@]3(C)C(=CC[C@@H]4[C@@]5(C)CC[C@H](O)C(C)(C)[C@@H]5CC[C@]43C)[C@@H]2C1 [OLEANOLIC_ACID] | 67.8 | 59.2
CC(C)=CCC[C@](C)(O[C@@H]1O[C@H](CO)[C@@H](O)[C@H](O)[C@H]1O)[C@H]1CC[C@]2(C)[C@@H]1[C@H](O)C[C@@H]1[C@@]3(C)CC[C@H](O[C@@H]4O[C@H](CO)[C@@H](O)[C@H](O)[C@H]4O)C(C)(C)[C@@H]3CC[C@]12C [GINSENOSIDE F2] | 64.6 | 117
CC(C)=CCC[C@](C)(O[C@@H]1O[C@H](CO[C@@H]2O[C@H](CO)[C@@H](O)[C@H](O)[C@H]2O)[C@@H](O)[C@H](O)[C@H]1O)[C@H]1CC[C@]2(C)[C@@H]1[C@H](O)C[C@@H]1[C@@]3(C)CC[C@H](O[C@@H]4O[C@H](CO)[C@@H](O)[C@H](O)[C@H]4O)C(C)(C)[C@@H]3CC[C@]12C [GYPENOSIDE XVII] | 86.5 | 80.8
CC(C)=CCC[C@](C)(O[C@@H]1O[C@H](CO[C@@H]2OC[C@H](O)[C@H](O)[C@H]2O)[C@@H](O)[C@H](O)[C@H]1O)[C@H]1CC[C@]2(C)[C@@H]1[C@H](O)C[C@@H]1[C@@]3(C)CC[C@H](O[C@@H]4O[C@H](CO)[C@@H](O)[C@H](O)[C@H]4O[C@@H]4O[C@H](CO)[C@@H](O)[C@H](O)[C@H]4O)C(C)(C)[C@@H]3CC[C@]12C [GINSENOSIDE RB2] | 77.5 | 80.9
CC(C)=CCC[C@](C)(O[C@@H]1O[C@H](CO[C@@H]2O[C@@H](CO)[C@H](O)[C@H]2O)[C@@H](O)[C@H](O)[C@H]1O)[C@H]1CC[C@]2(C)[C@@H]1[C@H](O)C[C@@H]1[C@@]3(C)CC[C@H](O[C@@H]4O[C@H](CO)[C@@H](O)[C@H](O)[C@H]4O[C@@H]4O[C@H](CO)[C@@H](O)[C@H](O)[C@H]4O)C(C)(C)[C@@H]3CC[C@]12C [GINSENOSIDE RC] | 87.7 | 79
CC1(C)CC[C@]2(C(=O)O)[C@H](O)C[C@]3(C)C(=CC[C@@H]4[C@@]5(C)CC[C@H](O)C(C)(C)[C@@H]5CC[C@]43C)[C@H]2C1 [ECHINOCYSTIC ACID] | 33.7 | 52.3
CC(C)=CCC[C@](C)(O[C@@H]1O[C@H](CO)[C@@H](O)[C@H](O)[C@H]1O)[C@H]1CC[C@]2(C)[C@@H]1[C@H](O)C[C@@H]1[C@@]3(C)CC[C@H](O)C(C)(C)[C@@H]3[C@@H](O)C[C@]12C [GINSENOSIDE F1] | 80.9 | 92
O=C(/C=C/c1ccc(O)c(O)c1)O[C@H]1[C@H](O)C[C@@](O)(C(=O)O)C[C@H]1O | 52.8 | 133
CC(C)=CCC[C@](C)(O)[C@H]1CC[C@]2(C)[C@@H]1[C@H](O)C[C@@H]1[C@@]3(C)CC[C@H](O)C(C)(C)[C@@H]3[C@@H](O[C@@H]3O[C@H](CO)[C@@H](O)[C@H](O)[C@H]3O[C@@H]3O[C@@H](C)[C@H](O)[C@@H](O)[C@H]3O)C[C@]12C [GINSENOSIDE RG2] | 103 | 96.5
CC(C)=CCC[C@](C)(O[C@@H]1O[C@H](CO[C@H]2O[C@H](CO)[C@@H](O)[C@@H]2O)[C@@H](O)[C@H](O)[C@H]1O)[C@H]1CC[C@]2(C)[C@@H]1[C@H](O)C[C@@H]1[C@@]3(C)CC[C@H](O)C(C)(C)[C@@H]3[C@@H](O)C[C@]12C [GINSENOSIDE F5] | 102 | 92.8
C/C=C(\C)C(=O)O[C@H]1[C@H](O)[C@]2(CO)[C@H](O)C[C@]3(C)C(=CC[C@@H]4[C@@]5(C)CC[C@H](O[C@@H]6O[C@H](C(=O)O)[C@@H](O[C@@H]7O[C@H](CO)[C@@H](O)[C@H](O)[C@H]7O)[C@H](O)[C@H]6O[C@@H]6O[C@H](CO)[C@@H](O)[C@H](O)[C@H]6O)[C@@](C)(CO)[C@@H]5CC[C@]43C)[C@@H]2CC1(C)C | 92.7 | 89.6
CC(C)=CCC[C@](C)(O[C@@H]1O[C@H](CO[C@@H]2OC[C@@H](O)[C@H](O)[C@H]2O)[C@@H](O)[C@H](O)[C@H]1O)[C@H]1CC[C@]2(C)[C@@H]1[C@H](O)C[C@@H]1[C@@]3(C)CC[C@H](O[C@@H]4O[C@H](CO)[C@@H](O)[C@H](O)[C@H]4O[C@@H]4O[C@H](CO)[C@@H](O)[C@H](O)[C@H]4O)C(C)(C)[C@@H]3CC[C@]12C [GINSENOSIDE RB3] | 95.1 | 57.8
CC(C)=CC/C=C(/C)[C@H]1CC[C@]2(C)[C@@H]1[C@H](O)C[C@@H]1[C@@]3(C)CC[C@H](O)C(C)(C)[C@@H]3[C@@H](O)C[C@]12C | 92.7 | 75.6
O=C(/C=C/c1ccc(O)c(O)c1)O[C@H](Cc1ccc(O)c(O)c1)C(=O)O [ROSMARINIC ACID] | 70.8 | 54.5
CC(C)=CCC[C@](C)(O[C@@H]1O[C@H](CO[C@@H]2OC[C@H](O)[C@H](O)[C@H]2O)[C@@H](O)[C@H](O)[C@H]1O)[C@H]1CC[C@]2(C)[C@@H]1[C@H](O)C[C@@H]1[C@@]3(C)CC[C@H](O)C(C)(C)[C@@H]3[C@@H](O)C[C@]12C [GINSENOSIDE F3] | 104 | 93.6
CC(C)=CCC[C@](C)(O[C@@H]1O[C@H](CO)[C@@H](O)[C@H](O)[C@H]1O)[C@H]1CC[C@]2(C)[C@@H]1[C@H](O)C[C@@H]1[C@@]3(C)CC[C@H](O[C@@H]4O[C@H](CO)[C@@H](O)[C@H](O)[C@H]4O[C@@H]4O[C@H](CO)[C@@H](O)[C@H](O)[C@H]4O)C(C)(C)[C@@H]3[C@@H](O)C[C@]12C | 94.5 | 97.5
CC(C)=CCC[C@](C)(O)[C@H]1CC[C@]2(C)[C@@H]1[C@H](O)C[C@@H]1[C@@]3(C)CC[C@H](O[C@@H]4O[C@H](CO)[C@@H](O)[C@H](O)[C@H]4O[C@@H]4O[C@H](CO)[C@@H](O)[C@H](O)[C@H]4O)C(C)(C)[C@@H]3CC[C@]12C | 99.1 | 53.1
O=C(/C=C/c1ccc(O)c(O)c1)O[C@H]1[C@H](O)C[C@](O)(C(=O)O)C[C@H]1OC(=O)/C=C/c1ccc(O)c(O)c1 | 119 | 46
CC(C)=CCC[C@](C)(O[C@@H]1O[C@H](CO)[C@@H](O)[C@H](O)[C@H]1O)[C@H]1CC[C@]2(C)[C@@H]1[C@H](O)C[C@@H]1[C@@]3(C)CC[C@H](O[C@@H]4O[C@H](CO)[C@@H](O)[C@H](O)[C@H]4O)C(C)(C)[C@@H]3[C@@H](O)C[C@]12C | 92.5 | 65.6
O=C(/C=C/c1ccc(O)c(O)c1)O[C@@H]1C[C@](O)(C(=O)O)C[C@@H](O)[C@H]1O [CHLOROGENIC ACID] | 56.6 | 77.4
